Experimental data from patent US20230365577A1, “Photodynamic Therapy and Diagnosis” (RMW CHO Group Limited, priority 2020, published 2023).
Structures can show the parent of a compound that is named as a salt. Where two headings read alike, the source gives them in different places.

Assays:
[1] = Singlet oxygen (1O2) production rate; assay type: physicochemical
Source text: The production of singlet oxygen (^1O2), cellular phototoxicity and light-independent cytotoxicity (“dark toxicity”) of a number of phyllochlorin analogues were compared against chlorin e4 disodium and Talaporfin sodium (mono-L-aspartyl chlorin e6), the active ingredient of Laserphyrin™.

[2] = test system: SKOV3 ovarian cancer cells; experiment: Phototoxicity in SKOV3 cells (652 nm laser, AlamarBlue viability); assay type: cell-based, Human
Protocol: (§1) Human ovarian cancer cell line SKOV3 (ATCC #HTB-77) was maintained in Dulbecco's Modified Eagle Medium/Nutrient Mixture F-12 (DMEM/F-12), supplemented with 10% v/v Fetal Bovine Serum, 100 U/mL penicillin and 100 µg/mL streptomycin. Monolayer cultures were grown in a humidified incubator at 37° C. with 5% CO2.
(§2) For in vitro experiments, photosensitizers (stock solution 5.5 mM in 100% DMSO) were diluted in cell culture media (Dulbecco's Modified Eagle Medium/Nutrient Mixture F-12) supplemented with 10% v/v Fetal Bovine Serum, 100 U/mL penicillin, 100 µg/mL streptomycin and 10% w/v Kollidon-12. Once cells had reached ˜80% confluence, spent media was replaced with media containing photosensitizer and cells were incubated for the desired period of time to allow photosensitizer uptake.
(§3) SKOV3 cells were seeded in 96-well black wall plates (Greiner #655090) at a cell density of 5000 cells in 100 μl culture medium per well. On reaching ˜60% confluence, so media was aspirated and replaced with fresh media containing the relevant phyllochlorin analogue from 0-100 μM in DMSO. Cells were incubated for a further 24 hours, allowing uptake of phyllochlorin analogues.
To test for phototoxicity, cells incubated with phyllochlorin analogues (0-10 μM in DMSO) had culture media replaced after 24 hours (as above) and were then exposed to a 652 nm laser (Invion) with laser density at 50 mW/cm^2 for 5 mins (total 15 J/cm^2). Following activation, cells were cultured for a further 24 hours. Media was then replaced with fresh media containing AlamarBlue, and % viable cells remaining assessed as above. Controls included cells treated with phyllochlorin analogues but not activated by laser light; cells without phyllochlorin analogue treatment but with laser light; and untreated controls. All measurements were made in quadruplicate.
(§4) For comparative purposes, phyllochlorin analogues were tested and compared against both chlorin e4 disodium and Talaporfin sodium, a clinically approved photosensitizer used in the photodynamic treatment of lung cancers. Phototoxicity IC90 values and dark toxicity IC10 values were calculated using a log[inhibitor]-vs normalized response dose curve with variable slope, using the formula Y=100/(1+(IC90/X)^HillSlope (phototoxicity IC90) or Y=100/(1+(IC10/X)^HillSlope (dark toxicity IC10).

[3] = test system: SKOV3 ovarian cancer cells; experiment: Inherent cytotoxicity (dark toxicity) in SKOV3 cells (AlamarBlue viability); assay type: cell-based, Human; conditions: human, 24 h
Protocol: as §1, §2
as §3, with “confluence,” for “confluence, so”
To test for inherent cytotoxicity (i.e. “dark toxicity”) of the phyllochlorin analogue the culture media was replaced after 24 hours with fresh media containing 10% (v/v) AlamarBlue Cell Viability Reagent (ThermoFisher) and cells incubated at 37° C. for 6 hours. Untreated cells were used as a control. Fluorescence (Ex 555 nm/Em 596 nm) was measured using a Cytation 3 Multimode Plate Reader (Biotek), and cytotoxicity assessed according to the % viable cells remaining. All measurements were made in quadruplicate.
as §4

[4] = Homo sapiens, SK-OV-3, light or radiation study, SKOV3, 24 h uptake, 652 nm laser 50 mW/cm2 5 mins (15 J/cm2), viability 24 h later, read-out: Cellular Toxicity: Phototoxicity IC90
[5] = Homo sapiens, SK-OV-3, light or radiation study, read-out: Cellular Toxicity: Phototoxicity IC90, SKOV3, 24 h uptake, 652 nm laser 50 mW/cm2 5 mins (15 J/cm2), viability 24 h later
[6] = Homo sapiens, SK-OV-3, light or radiation study, SKOV3, read-out: Phototoxicity apparent IC90

## C=Cc1c(C)c2cc3nc(c(C)c4cc(C)c(cc5nc(cc1[nH]2)C(C)=C5CC)[nH]4)[C@@H](CCC(=O)N(C)CCCS[C@H]1O[C@H](CO)[C@@H](O)[C@H](O)[C@@H]1O)[C@@H]3C [Compound 16, phyllochlorin α-D-1-thiomannose-N-methylpropylamide conjugate]
[1]
  Singlet Oxygen Production (slope) 1O2: 884.1
[2]; [4]
  IC90: 250 nM
[3]
  Cellular Toxicity: Dark toxicity IC10: 28.64 µM

## C=Cc1c(C)c2cc3nc(c(C)c4cc(C)c(cc5nc(cc1[nH]2)C(C)=C5CC)[nH]4)[C@@H](CCC(=O)N(C)CCCS[C@@H]1O[C@H](CO)[C@@H](O)[C@H](O)[C@@H]1O)[C@@H]3C [Compound 17, phyllochlorin β-D-1-thiomannose-N-methylpropylamide conjugate]
[1]
  Singlet Oxygen Production (slope) 1O2: 1265.0
[2]; [4]
  IC90: 220 nM
[3]
  Cellular Toxicity: Dark toxicity IC10: 76.27 µM

## C=Cc1c(C)c2cc3nc(c(C)c4cc(C)c(cc5nc(cc1[nH]2)C(C)=C5CC)[nH]4)[C@@H](CCC(=O)N(C)CCOCCO)[C@@H]3C [Compound 18, 3-((7S,8S)-18-ethyl-2,5,8,12,17-pentamethyl-13-vinyl-7H,8H-porphyrin-7-yl)-N-(2-(2-hydroxyethoxy)ethyl)-N-methylpropanamide]
[1]
  Singlet Oxygen Production (slope) 1O2: 1060.0
[2]; [4]
  IC90: 100 nM
[3]
  Cellular Toxicity: Dark toxicity IC10: 32.30 µM

## C=Cc1c(C)c2cc3nc(c(C)c4cc(C)c(cc5nc(cc1[nH]2)C(C)=C5CC)[nH]4)[C@@H](CCC(=O)N(C)CCC[S+]([O-])[C@@H]1O[C@H](CO)[C@@H](O)[C@H](O)[C@H]1O)[C@@H]3C (stereo partly drawn) [Compound 9, 3-((7S,8S)-18-ethyl-2,5,8,12,17-pentamethyl-13-vinyl-7H,8H-porphyrin-7-yl)-N-methyl-N-(3-(((2S,3R,4S,5S,6R)-3,4,5-trihydroxy-6-(hydroxymethyl)tetrahydro-2H-pyran-2-yl)thio)propyl)propanamide sulphoxide]
[1]
  Singlet Oxygen Production (slope) 1O2: 1396.0
[2]; [5]
  IC90: 190 nM
[3]
  Cellular Toxicity: Dark toxicity IC10: 70.24 µM

## C=Cc1c(C)c2cc3nc(c(C)c4cc(C)c(cc5nc(cc1[nH]2)C(C)=C5CC)[nH]4)[C@@H](CCC(=O)N[C@H]1C(O)O[C@H](CO)[C@@H](O)[C@@H]1O)[C@@H]3C (stereo partly shown) [Compound 13, phyllochlorin 2-deoxyglucosamine-propylamide]
[1]
  Singlet Oxygen Production (slope) 1O2: 1423.0
[2]; [5]
  IC90: 120 nM
[3]
  Cellular Toxicity: Dark toxicity IC10: 13.02 µM

## C=Cc1c(C)c2cc3nc(c(CC(=O)N[C@@H](CC(=O)O)C(=O)O)c4[nH]c(cc5nc(cc1[nH]2)C(C)=C5CC)c(C)c4C(=O)O)[C@@H](CCC(=O)O)[C@@H]3C [Talaporfin sodium, mono-L-aspartyl chlorin e6, reference compound]
[1]
  Singlet Oxygen Production (slope) 1O2: 736.7
[2]; [4]
  IC90: 22800 nM
[3]
  Cellular Toxicity: Dark toxicity IC10: 11.10 µM

## C=Cc1c(C)c2cc3nc(c(C)c4cc(C)c(cc5nc(cc1[nH]2)C(C)=C5CC)[nH]4)[C@@H](CCC(=O)N(C)CCOCCOCCO)[C@@H]3C [Compound 4, 3-((7S,8S)-18-ethyl-2,5,8,12,17-pentamethyl-13-vinyl-7H,8H-porphyrin-7-yl)-N-(2-(2-(2-hydroxyethoxy)ethoxy)ethyl)-N-methylpropanamide]
[1]
  Singlet Oxygen Production (slope) 1O2: 2191.0
[2]; [4]
  IC90: 120 nM
[3]
  Cellular Toxicity: Dark toxicity IC10: 16.41 µM

## C=Cc1c(C)c2cc3nc(c(C)c4cc(C)c(cc5nc(cc1[nH]2)C(C)=C5CC)[nH]4)[C@@H](CCC(=O)O)[C@@H]3C [Compound 1b, phyllochlorin lithium salt]
[1]; lithium salt
  Singlet Oxygen Production (slope) 1O2: 841.7
[2]; SKOV3, 24 h uptake, 652 nm laser 50 mW/cm2 5 mins (15 J/cm2), viability 24 h later, lithium salt, read-out: Cellular Toxicity: Phototoxicity IC90
  IC90: 1400 nM
[3]
  Cellular Toxicity: Dark toxicity IC10: 22.13 µM

## C=Cc1c(C)c2cc3nc(c(C)c4cc(C)c(cc5nc(cc1[nH]2)C(C)=C5CC)[nH]4)[C@@H](CCC(=O)O)[C@@H]3C [Compound 1e, phyllochlorin meglumine salt]
[1]
  Singlet Oxygen Production (slope) 1O2: 938.8
[2]; SKOV3, 24 h uptake, 652 nm laser 50 mW/cm2 5 mins (15 J/cm2), viability 24 h later, read-out: Cellular Toxicity: Phototoxicity IC90
  IC90: 1790 nM
[3]
  Cellular Toxicity: Dark toxicity IC10: 20.73 µM

## C=Cc1c(C)c2cc3nc(c(C)c4cc(C)c(cc5nc(cc1[nH]2)C(C)=C5CC)[nH]4)[C@@H](CCC(=O)N(C)CCO)[C@@H]3C [Compound 10, 3-((7S,8S)-18-ethyl-2,5,8,12,17-pentamethyl-13-vinyl-7H,8H-porphyrin-7-yl)-N-(2-hydroxyethyl)-N-methylpropanamide]
[1]
  Singlet Oxygen Production (slope) 1O2: 1691.0
[2]; [4]
  IC90: 160 nM
[3]
  Cellular Toxicity: Dark toxicity IC10: 14.94 µM

## C=Cc1c(C)c2cc3nc(c(C)c4cc(C)c(cc5nc(cc1[nH]2)C(C)=C5CC)[nH]4)[C@@H](CCC(=O)N(C)CCCS[C@@H]1O[C@H](COC(C)=O)[C@@H](OC(C)=O)[C@H](OC(C)=O)[C@H]1OC(C)=O)[C@@H]3C [Compound 11, (2R,3R,4S,5R,6S)-2-(acetoxymethyl)-6-((3-(3-((7S,8S)-18-ethyl-2,5,8,12,17-pentamethyl-13-vinyl-7H,8H-porphyrin-7-yl)-N-methylpropanamido)propyl)thio)tetrahydro-2H-pyran-3,4,5-triyl triacetate]
[1]
  Singlet Oxygen Production (slope) 1O2: 1434.0
[2]; [5]
  IC90: 500 nM
[3]
  Cellular Toxicity: Dark toxicity IC10: 29.00 µM

## C=Cc1c(C)c2cc3nc(c(C)c4cc(C)c(cc5nc(cc1[nH]2)C(C)=C5CC)[nH]4)[C@@H](CCC(=O)N(C)CCCCCS[C@@H]1O[C@H](CO)[C@@H](O)[C@H](O)[C@H]1O)[C@@H]3C [Compound 8, 3-((7S,8S)-18-ethyl-2,5,8,12,17-pentamethyl-13-vinyl-7H,8H-porphyrin-7-yl)-N-methyl-N-(5-(((2S,3R,4S,5S,6R)-3,4,5-trihydroxy-6-(hydroxymethyl)tetrahydro-2H-pyran-2-yl)thio)pentyl)propanamide]
[1]
  Singlet Oxygen Production (slope) 1O2: 1314.0
[2]; [4]
  IC90: 60 nM
[2]; [6]
  IC90: < 100 nM
[2]; SKOV3, IC90
  Fold increase in cellular phototoxicity compared to compound 2: approximately 4 fold
[3]
  Cellular Toxicity: Dark toxicity IC10: 12.55 µM

## C=Cc1c(C)c2cc3nc(c(C)c4cc(C)c(cc5nc(cc1[nH]2)C(C)=C5CC)[nH]4)[C@@H](CCC(=O)O)[C@@H]3C [Compound 1a, phyllochlorin potassium salt]
[1]; potassium salt
  Singlet Oxygen Production (slope) 1O2: 760.9
[2]; SKOV3, 24 h uptake, 652 nm laser 50 mW/cm2 5 mins (15 J/cm2), viability 24 h later, potassium salt, read-out: Cellular Toxicity: Phototoxicity IC90
  IC90: 470 nM
[3]
  Cellular Toxicity: Dark toxicity IC10: 12.41 µM

## C=Cc1c(C)c2cc3nc(c(C)c4cc(C)c(cc5nc(cc1[nH]2)C(C)=C5CC)[nH]4)[C@@H](CCC(=O)N(C)CCCS[C@@H]1O[C@H](COC(=O)[C@@H](N)C(C)C)[C@@H](O)[C@H](O)[C@H]1O)[C@@H]3C [Compound 12, ((2R,3S,4S,5R,6S)-6-((3-(3-((7S,8S)-18-ethyl-2,5,8,12,17-pentamethyl-13-vinyl-7H,8H-porphyrin-7-yl)-N-methylpropanamido)propyl)thio)-3,4,5-trihydroxytetrahydro-2H-pyran-2-yl)methyl L-valinate hydrochloride]
[1]
  Singlet Oxygen Production (slope) 1O2: 1121.0
[2]; [5]
  IC90: 180 nM
[3]
  Cellular Toxicity: Dark toxicity IC10: 28.36 µM

## C=Cc1c(C)c2cc3nc(c(C)c4cc(C)c(cc5nc(cc1[nH]2)C(C)=C5CC)[nH]4)[C@@H](CCC(=O)N(C)CCCO)[C@@H]3C [Compound 5, 3-((7S,8S)-18-ethyl-2,5,8,12,17-pentamethyl-13-vinyl-7H,8H-porphyrin-7-yl)-N-(3-hydroxypropyl)-N-methylpropanamide]
[1]
  Rate of ROS production relative to chlorin e4 disodium and Talaporfin sodium: more than double
  Singlet Oxygen Production (slope) 1O2: 2385.0
[2]; [4]
  IC90: 50 nM
[2]; [6]
  IC90: < 100 nM
[3]
  Cellular Toxicity: Dark toxicity IC10: 20.82 µM
